Experimental data as given in the NIST ThermoML archive (doi:10.1016/j.jct.2006.05.008).

Experiment: molar heat capacity at constant pressure; wn = mass fraction of the nth substance listed
Details: Small (less than 1 g) adiabatic calorimetry

CCCCn1cc[n+](C)c1.[Br-] [1-butyl-3-methylimidazolium bromide] + O
Crystal
Details	molar heat capacity at constant pressure [J/K/mol]
80.69 K, w2 = 0.00482	98.89
80.93 K, w2 = 0.0051	98.9
81.42 K, w2 = 0.0169	89.1
83.2 K, w2 = 0.00482	100.65
83.26 K, w2 = 0.0051	100.45
83.41 K, w2 = 0.0169	90.19
84.28 K, w2 = 0.0495	71.58
85.41 K, w2 = 0.0169	91.5
85.62 K, w2 = 0.0051	101.93
85.71 K, w2 = 0.00482	102.22
86.99 K, w2 = 0.0495	72.97
87.41 K, w2 = 0.0169	92.8
87.99 K, w2 = 0.0051	103.55
88.22 K, w2 = 0.00482	103.95
89.41 K, w2 = 0.0169	94.12
89.64 K, w2 = 0.0495	74.29
90.39 K, w2 = 0.0051	105.19
90.73 K, w2 = 0.00482	105.63
91.42 K, w2 = 0.0169	95.27
92.3 K, w2 = 0.0495	75.61
92.8 K, w2 = 0.0051	106.81
93.24 K, w2 = 0.00482	107.29
93.42 K, w2 = 0.0169	96.43
94.99 K, w2 = 0.0495	76.9
95.24 K, w2 = 0.0051	108.32
95.42 K, w2 = 0.0169	97.66
95.77 K, w2 = 0.00482	108.86
97.43 K, w2 = 0.0169	98.68
97.68 K, w2 = 0.0051	109.8
97.69 K, w2 = 0.0495	78.16
98.29 K, w2 = 0.00482	110.42
99.44 K, w2 = 0.0169	99.85
100.14 K, w2 = 0.0051	111.32
100.41 K, w2 = 0.0495	79.41
100.82 K, w2 = 0.00482	111.94
101.45 K, w2 = 0.0169	101.05
102.61 K, w2 = 0.0051	112.8
103.15 K, w2 = 0.0495	80.66
103.35 K, w2 = 0.00482	113.4
103.46 K, w2 = 0.0169	102.17
105.09 K, w2 = 0.0051	114.19
105.47 K, w2 = 0.0169	103.12
105.88 K, w2 = 0.00482	114.89
105.9 K, w2 = 0.0495	81.82
107.49 K, w2 = 0.0169	104.29
107.59 K, w2 = 0.0051	115.72
108.42 K, w2 = 0.00482	116.33
108.67 K, w2 = 0.0495	83.08
109.51 K, w2 = 0.0169	105.26
110.1 K, w2 = 0.0051	117.14
110.97 K, w2 = 0.00482	117.75
111.45 K, w2 = 0.0495	84.27
111.54 K, w2 = 0.0169	106.2
112.61 K, w2 = 0.0051	118.54
113.51 K, w2 = 0.00482	119.17
113.57 K, w2 = 0.0169	107.35
114.24 K, w2 = 0.0495	85.5
115.14 K, w2 = 0.0051	119.96
115.6 K, w2 = 0.0169	108.36
116.06 K, w2 = 0.00482	120.61
117.04 K, w2 = 0.0495	86.65
117.63 K, w2 = 0.0169	109.39
117.68 K, w2 = 0.0051	121.3
118.63 K, w2 = 0.00482	121.93
119.66 K, w2 = 0.0169	110.42
119.84 K, w2 = 0.0495	87.83
120.23 K, w2 = 0.0051	122.75
121.18 K, w2 = 0.00482	123.35
121.69 K, w2 = 0.0169	111.46
122.66 K, w2 = 0.0495	89.01
122.78 K, w2 = 0.0051	124.09
123.73 K, w2 = 0.0169	112.39
123.74 K, w2 = 0.00482	124.71
125.34 K, w2 = 0.0051	125.46
125.48 K, w2 = 0.0495	90.15
125.77 K, w2 = 0.0169	113.34
126.3 K, w2 = 0.00482	126.04
127.81 K, w2 = 0.0169	114.42
127.91 K, w2 = 0.0051	126.77
128.32 K, w2 = 0.0495	91.34
128.86 K, w2 = 0.00482	127.4
129.85 K, w2 = 0.0169	115.33
130.48 K, w2 = 0.0051	128.21
131.16 K, w2 = 0.0495	92.52
131.42 K, w2 = 0.00482	128.75
131.9 K, w2 = 0.0169	116.36
133.06 K, w2 = 0.0051	129.58
133.95 K, w2 = 0.0169	117.4
134 K, w2 = 0.00482	130.13
134 K, w2 = 0.0495	93.65
135.64 K, w2 = 0.0051	131
136 K, w2 = 0.0169	118.35
136.57 K, w2 = 0.00482	131.47
136.85 K, w2 = 0.0495	94.81
138.05 K, w2 = 0.0169	119.43
139.14 K, w2 = 0.00482	132.79
139.19 K, w2 = 0.0051	132.51
139.7 K, w2 = 0.0495	95.99
140.1 K, w2 = 0.0169	120.24
141.87 K, w2 = 0.0051	133.88
142.16 K, w2 = 0.0169	121.29
142.55 K, w2 = 0.0495	97.17
143.39 K, w2 = 0.00482	135
144.23 K, w2 = 0.0169	122.36
144.46 K, w2 = 0.0051	135.42
145.41 K, w2 = 0.0495	98.38
145.73 K, w2 = 0.00482	136.26
146.29 K, w2 = 0.0169	123.43
147.05 K, w2 = 0.0051	136.72
148.27 K, w2 = 0.0495	99.58
148.31 K, w2 = 0.00482	137.61
148.35 K, w2 = 0.0169	124.38
149.65 K, w2 = 0.0051	138.06
150.42 K, w2 = 0.0169	125.3
150.89 K, w2 = 0.00482	138.87
151.13 K, w2 = 0.0495	100.83
152.25 K, w2 = 0.0051	139.46
152.48 K, w2 = 0.0169	126.38

101.3 kPa, Glass, w2 = 0.00482
Details	molar heat capacity at constant pressure [J/K/mol]
82.79 K	103.56
85.01 K	105.32
87.51 K	107.36
90.01 K	109.3
92.52 K	111.32
95.02 K	113.23
99.79 K	116.7
102.06 K	118.31
104.58 K	120.07
107.1 K	121.78
109.63 K	123.51
112.16 K	125.21
114.69 K	126.86
117.23 K	128.48
119.76 K	130.09
122.3 K	131.74
124.85 K	133.4
127.39 K	135.01
129.94 K	136.58
132.49 K	138.2
135.04 K	139.78
137.59 K	141.4
140.15 K	142.95
142.71 K	144.57
145.27 K	146.31
147.83 K	147.89
150.39 K	149.45
